Reference: PubChem BioAssay AID1963873 (Molecular Pharmacology Branch, DTP, NCI, 2024)

Tested on: 276233-004-R-J1-PDC KRAS spheroids with HUVEC/MSC, viability
Assay: Anticancer human tumor 276233-004-R-J1-PDC patient-derived colon adenocarcinoma cell line growth inhibition [KRAS2]
Conditions: for IC50: curve of first compound; for viability, T/C: stronger effect = lower value
In short: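 KRAS-mutant tumor cells were grown as spheroids with HUVEC endothelial cells and human MSCs as stroma. Targeted agents were tested alone and with KRAS pathway inhibitors. Doses started at or near clinical Cmax, or 10 microM, descending half-log.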

[1] = second compound 0.1 µM, first compound 0.0316 µM
[2] = second compound 0.1 µM, first compound 0.1 µM
[3] = second compound 0.1 µM, first compound 0.316 µM
[4] = second compound 0.1 µM, first compound 1 µM
[5] = second compound 0.1 µM, first compound 3.16 µM
[6] = second compound 0.316 µM, first compound 0.0316 µM
[7] = second compound 0.316 µM, first compound 0.1 µM
[8] = second compound 0.316 µM, first compound 0.316 µM
[9] = second compound 0.316 µM, first compound 1 µM
[10] = second compound 0.316 µM, first compound 3.16 µM
[11] = second compound 1 µM, first compound 0.0316 µM
[12] = second compound 1 µM, first compound 0.1 µM
[13] = second compound 1 µM, first compound 0.316 µM
[14] = second compound 1 µM, first compound 1 µM
[15] = second compound 1 µM, first compound 3.16 µM
[16] = second compound 3.16 µM, first compound 0.0316 µM
[17] = second compound 3.16 µM, first compound 0.1 µM
[18] = second compound 3.16 µM, first compound 0.316 µM
[19] = second compound 3.16 µM, first compound 1 µM
[20] = second compound 3.16 µM, first compound 3.16 µM
[21] = second compound 10 µM, first compound 0.0316 µM
[22] = second compound 10 µM, first compound 0.1 µM
[23] = second compound 10 µM, first compound 0.316 µM
[24] = second compound 10 µM, first compound 1 µM
[25] = second compound 10 µM, first compound 3.16 µM
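Further: cells exposed to agents for seven days before viability read.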
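Wherever viability, T/C is given: 100% = DMSO vehicle control wells and lower values mean fewer viable cells.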

| SMILES | IC50 (second compound 0.1 µM) [µM] | IC50 (second compound 0.316 µM) [µM] | IC50 (second compound 1 µM) [µM] | IC50 (second compound 3.16 µM) [µM] | IC50 (second compound 10 µM) [µM] | viability, T/C [1] [%] | viability, T/C [2] [%] | viability, T/C [3] [%] | viability, T/C [4] [%] | viability, T/C [5] [%] | viability, T/C [6] [%] | viability, T/C [7] [%] | viability, T/C [8] [%] | viability, T/C [9] [%] | viability, T/C [10] [%] | viability, T/C [11] [%] | viability, T/C [12] [%] | viability, T/C [13] [%] | viability, T/C [14] [%] | viability, T/C [15] [%] | other results |
| --- | --- | --- | --- | --- | --- | --- | --- | --- | --- | --- | --- | --- | --- | --- | --- | --- | --- | --- | --- | --- | --- |
| Cn1nccc1Nc1nccc(-c2cc3c(s2)C(C)(C)N(CCN2CCOCC2)C3=O)n1 + CNCc1ccccc1-c1csc(C(C)Nc2nc(C)nc3cc(OC)c(OC)cc23)c1 | 7.27 | > 10 | 1.06 | < 0.0316 | < 0.0316 | 107 | 91.7 | 80.2 | 81.6 | 49.3 | 115 | 89.9 | 94.2 | 79.3 | 50.1 | 86 | 83.1 | 68 | 52.4 | 27.3 | viability, T/C (second compound 0.1 µM, first compound 10 µM): 49.4%; viability, T/C (second compound 0.316 µM, first compound 10 µM): 60.2%; viability, T/C (second compound 1 µM, first compound 10 µM): 6.69%; viability, T/C [16]: 3.02%; viability, T/C [17]: 2.17%; viability, T/C [18]: 2.97%; viability, T/C [19]: 3.66%; viability, T/C [20]: 1.05%; viability, T/C (second compound 3.16 µM, first compound 10 µM): 0.59%; viability, T/C [21]: 2.67%; viability, T/C [22]: 2.95%; viability, T/C [23]: 1.94%; viability, T/C [24]: 1.75%; viability, T/C [25]: 1.4%; viability, T/C (second compound 10 µM, first compound 10 µM): 0.24% |
| CC(=O)OC12COC1CC(O)C1(C)C(=O)C(O)C3=C(C)C(OC(=O)C(O)C(NC(=O)OC(C)(C)C)c4ccccc4)CC(O)(C(OC(=O)c4ccccc4)C21)C3(C)C (stereo not given) + C=CC(=O)N1CCN(c2nc(=O)n(-c3c(C)ccnc3C(C)C)c3nc(-c4c(O)cccc4F)c(F)cc23)C(C)C1 | > 3.16 | > 3.16 | > 3.16 | > 3.16 | > 3.16 | 96.5 | 80.4 | 77.4 | 86.3 | 97.8 | 109 | 79.4 | 70.5 | 90.1 | 89.5 | 85.3 | 71.6 | 75 | 88 | 99.2 | viability, T/C (second compound 0.1 µM, first compound 0.01 µM): 87%; viability, T/C (second compound 0.316 µM, first compound 0.01 µM): 100%; viability, T/C (second compound 1 µM, first compound 0.01 µM): 90.7%; viability, T/C (second compound 3.16 µM, first compound 0.01 µM): 95.5%; viability, T/C [16]: 84.9%; viability, T/C [17]: 77.8%; viability, T/C [18]: 92.8%; viability, T/C [19]: 79.5%; viability, T/C [20]: 90.2%; viability, T/C (second compound 10 µM, first compound 0.01 µM): 79.2%; viability, T/C [21]: 72.2%; viability, T/C [22]: 97.6%; viability, T/C [23]: 64.2%; viability, T/C [24]: 103%; viability, T/C [25]: 129% |
